From ChEMBL document CHEMBL1156624, “A click chemistry approach to pleuromutilin conjugates with nucleosides or acyclic nucleoside derivatives and their binding to the bacterial ribosome” (J Med Chem, 2008)

Assays:
Escherichia coli [1] = experiment: Binding affinity to Escherichia coli MRE600 ribosome assessed as protection against N1-cyclohexyl-N3-(2-morpholino)ethylcarbodiimide p-toluenesulfonate-induced modifications at nucleotide U2585 in peptidyl transferase center of 23S rRNA at 5 uM by chemical footprinting relative to control
Escherichia coli [2] = experiment: Binding affinity to Escherichia coli MRE600 ribosome assessed as protection against N1-cyclohexyl-N3-(2-morpholino)ethylcarbodiimide p-toluenesulfonate-induced modifications at nucleotide U2506 in peptidyl transferase center of 23S rRNA at 5 uM by chemical footprinting relative to control
Escherichia coli [3] = experiment: Binding affinity to Escherichia coli MRE600 ribosome assessed as protection against N1-cyclohexyl-N3-(2-morpholino)ethylcarbodiimide p-toluenesulfonate-induced modifications at nucleotide U2506 in peptidyl transferase center of 23S rRNA at 50 uM by chemical footprinting relative to control
Escherichia coli [4] = experiment: Binding affinity to Escherichia coli MRE600 ribosome assessed as protection against N1-cyclohexyl-N3-(2-morpholino)ethylcarbodiimide p-toluenesulfonate-induced modifications at nucleotide U2585 in peptidyl transferase center of 23S rRNA at 50 uM by chemical footprinting relative to control

Row | Structure (SMILES) | Activity (Escherichia coli [1]) | Activity (Escherichia coli [2]) | Activity (Escherichia coli [3]) | Activity (Escherichia coli [4])
1 | C=C[C@]1(C)C[C@@H](OC(=O)CO)[C@]2(C)[C@H](C)CC[C@]3(CCC(=O)[C@@H]32)[C@@H](C)[C@@H]1O | 0.99 | 0.42 | 0.1 | 0.98
2 | C=C[C@]1(C)C[C@@H](OC(=O)Cn2cc(C[C@H](O)[C@@H]3O[C@H](n4cc(C)c(=O)[nH]c4=O)C[C@H]3O)nn2)[C@]2(C)[C@H](C)CC[C@]3(CCC(=O)[C@@H]32)[C@@H](C)[C@@H]1O | 0.69 | 0.33 | 0.09 | 0.35
3 | C=C[C@]1(C)C[C@@H](OC(=O)Cn2cc(CCn3cnc4c(N)ncnc43)nn2)[C@]2(C)[C@H](C)CC[C@]3(CCC(=O)[C@@H]32)[C@@H](C)[C@@H]1O | 0.4 | 0.37 | 0.1 | 0.26
4 | C=C[C@]1(C)C[C@@H](OC(=O)Cn2cc(C[C@@H](O)[C@@H]3O[C@H](n4cc(C)c(=O)[nH]c4=O)C[C@H]3O)nn2)[C@]2(C)[C@H](C)CC[C@]3(CCC(=O)[C@@H]32)[C@@H](C)[C@@H]1O | 0.59 | 0.32 | 0.09 | 0.29
5 | C=C[C@]1(C)C[C@@H](OC(=O)Cn2cc(CCCn3ccc(N)nc3=O)nn2)[C@]2(C)[C@H](C)CC[C@]3(CCC(=O)[C@@H]32)[C@@H](C)[C@@H]1O | 0.56 | 0.27 | 0.05 | 0.26
6 | C=C[C@]1(C)C[C@@H](OC(=O)Cn2cc(Cn3ccc(N)nc3=O)nn2)[C@]2(C)[C@H](C)CC[C@]3(CCC(=O)[C@@H]32)[C@@H](C)[C@@H]1O | 0.69 | 0.61 | 0.16 | 0.38
7 | C=C[C@]1(C)C[C@@H](OC(=O)Cn2cc([C@@H](O)[C@@H]3O[C@H](n4cc(C)c(=O)[nH]c4=O)C[C@H]3O)nn2)[C@]2(C)[C@H](C)CC[C@]3(CCC(=O)[C@@H]32)[C@@H](C)[C@@H]1O (mixture of isomers) | 0.5 | 0.38 | 0.1 | 0.25
8 | C=C[C@]1(C)C[C@@H](OC(=O)Cn2cc(CCn3cc(C)c(=O)[nH]c3=O)nn2)[C@]2(C)[C@H](C)CC[C@]3(CCC(=O)[C@@H]32)[C@@H](C)[C@@H]1O | 0.57 | 0.53 | 0.1 | 0.36
9 | C=C[C@]1(C)C[C@@H](OC(=O)Cn2cc(COC[C@H]3O[C@@H](n4cc(C)c(=O)[nH]c4=O)C[C@@H]3O)nn2)[C@]2(C)[C@H](C)CC[C@]3(CCC(=O)[C@@H]32)[C@@H](C)[C@@H]1O | 0.93 | 0.62 | 0.19 | 0.36
10 | C=C[C@]1(C)C[C@@H](OC(=O)Cn2cc(CO[C@@H]3[C@H](O)[C@@H](CO)O[C@H]3n3ccc(=O)[nH]c3=O)nn2)[C@]2(C)[C@H](C)CC[C@]3(CCC(=O)[C@@H]32)[C@@H](C)[C@@H]1O | 0.72 | 0.54 | 0.14 | 0.29
11 | C=C[C@]1(C)C[C@@H](OC(=O)CSCCN(CC)CC)[C@]2(C)[C@H](C)CC[C@]3(CCC(=O)[C@H]32)[C@@H](C)[C@@H]1O | 0.59 | 0.1 | 0.05 | 0.58
12 | C=C[C@]1(C)C[C@@H](OC(=O)Cn2cc([C@]3(O)[C@@H](CO)O[C@@H](n4ccc(=O)[nH]c4=O)[C@@H]3O)nn2)[C@]2(C)[C@H](C)CC[C@]3(CCC(=O)[C@@H]32)[C@@H](C)[C@@H]1O | 0.45 | 0.24 | 0.03 | 0.18
13 | C=C[C@]1(C)C[C@@H](OC(=O)Cn2cc(CCc3ccccc3)nn2)[C@]2(C)[C@H](C)CC[C@]3(CCC(=O)[C@@H]32)[C@@H](C)[C@@H]1O | 0.61 | 0.29 | 0.05 | 0.35
14 | C=C[C@]1(C)C[C@@H](OC(=O)Cn2cc(CCCn3cc(C)c(=O)[nH]c3=O)nn2)[C@]2(C)[C@H](C)CC[C@]3(CCC(=O)[C@@H]32)[C@@H](C)[C@@H]1O | 0.46 | 0.41 | 0.08 | 0.24
15 | C=C[C@]1(C)C[C@@H](OC(=O)Cn2cc(CO[C@@H]3C[C@@H](n4cc(C)c(=O)[nH]c4=O)O[C@H]3CO)nn2)[C@]2(C)[C@H](C)CC[C@]3(CCC(=O)[C@@H]32)[C@@H](C)[C@@H]1O | 0.73 | 0.44 | 0.12 | 0.41
16 | C=C[C@]1(C)C[C@@H](OC(=O)Cn2cc([C@]3(O)[C@H](O)[C@@H](CO)O[C@H]3n3ccc(=O)[nH]c3=O)nn2)[C@]2(C)[C@H](C)CC[C@]3(CCC(=O)[C@@H]32)[C@@H](C)[C@@H]1O | 0.74 | 0.61 | 0.18 | 0.35
17 | C=C[C@]1(C)C[C@@H](OC(=O)Cn2cc(CCCn3cnc4c(N)ncnc43)nn2)[C@]2(C)[C@H](C)CC[C@]3(CCC(=O)[C@@H]32)[C@@H](C)[C@@H]1O | 0.33 | 0.17 | 0.06 | 0.22
18 | C=C[C@]1(C)C[C@@H](OC(=O)Cn2cc(Cn3cc(C)c(=O)[nH]c3=O)nn2)[C@]2(C)[C@H](C)CC[C@]3(CCC(=O)[C@@H]32)[C@@H](C)[C@@H]1O | 0.75 | 0.69 | 0.18 | 0.37
19 | C=C[C@]1(C)C[C@@H](OC(=O)Cn2cc(Cc3ccccc3)nn2)[C@]2(C)[C@H](C)CC[C@]3(CCC(=O)[C@@H]32)[C@@H](C)[C@@H]1O | 0.54 | 0.31 | 0.06 | 0.29
20 | C=C[C@]1(C)C[C@@H](OC(=O)Cn2cc(CCCc3ccccc3)nn2)[C@]2(C)[C@H](C)CC[C@]3(CCC(=O)[C@@H]32)[C@@H](C)[C@@H]1O | 0.48 | 0.21 | 0.08 | 0.41
21 | C=C[C@]1(C)C[C@@H](OC(=O)Cn2cc(Cn3cnc4c(N)ncnc43)nn2)[C@]2(C)[C@H](C)CC[C@]3(CCC(=O)[C@@H]32)[C@@H](C)[C@@H]1O | 0.73 | 0.73 | 0.19 | 0.37
